# Laboratory results reported in patent US11945822B2, “Pyrazolo-triazine and/or pyrazolo-pxrimidine derivatives as selective inhibitor of cyclin dependent kinase” (QURIENT CO., LTD., priority 2018, dated 2024).
# System: H460
# Assay: Cellular H460 viability assay (CellTiter-Glo, 72 hours)
# Type: cell-based
# Conditions: Homo sapiens, NCI-H460
# Method in brief: (§1)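 Luminescent ATP read-out (CellTiter-Glo) after 72 h compound exposure at 37 °C/5% CO2; duplicate wells; vehicle control DMSO <0.1% final; seeding density set per cell line.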
row,IC50 [nM],SMILES
1,1000 to 10000,CC(C)c1cnn2c(NCc3ccccc3-c3ccc4ccccc4n3)nc(O[C@H]3CC[C@@H](O)CC3)nc12 [Compound 272]
2,< 1000,CC(=O)Nc1ccc2[nH]c(-c3ccccc3CNc3nc(N4CCC(N)CC4)nc4c(C(C)C)cnn34)cc2c1 [Compound 116]
3,< 1000,CC(C)c1cnn2c(NCc3ccccc3-n3ccc(-c4ccccc4)n3)nc(N3CCC(N)CC3)nc12 [Compound 99]

# System: RPMI-8226
# Assay: Cellular RPMI-8226 viability assay (CellTiter-Glo, 72 hours)
# Type: cell-based
# Conditions: Homo sapiens
# Method in brief: as §1
row,IC50 [nM],SMILES
1,< 1000,CC(=O)Nc1ccc2[nH]c(-c3ccccc3CNc3nc(N4CCC(N)CC4)nc4c(C(C)C)cnn34)cc2c1 [Compound 116]
2,1000 to 10000,CC(C)c1cnn2c(NCc3ccccc3-n3ccc(-c4ccccc4)n3)nc(N3CCC(N)CC3)nc12 [Compound 99]

# Biological target: T1, CDK5/p25 (Homo sapiens, UniProt Q00535)
# T1 construct: purchased Invitrogen PR8543B
# Assay: Enzymatic assay for CDK5 (FRET based LANCE Ultra kinase assay)
# Type: biochemical
# Conditions: read-out: CDK5 enzymatic activity (IC50 activity range)
# Method in brief: (§2)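 LANCE Ultra TR-FRET: ULight-MBP peptide (68 nM) with ATP at Km, […], 60 min at 23° C. EDTA plus Eu-anti-phospho-MBP added, another 60 min, then 665/615 nm emission read. Compounds tested as 8-dose 4-fold DMSO dilutions.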
# T1 sequence (Q00535 whole entry): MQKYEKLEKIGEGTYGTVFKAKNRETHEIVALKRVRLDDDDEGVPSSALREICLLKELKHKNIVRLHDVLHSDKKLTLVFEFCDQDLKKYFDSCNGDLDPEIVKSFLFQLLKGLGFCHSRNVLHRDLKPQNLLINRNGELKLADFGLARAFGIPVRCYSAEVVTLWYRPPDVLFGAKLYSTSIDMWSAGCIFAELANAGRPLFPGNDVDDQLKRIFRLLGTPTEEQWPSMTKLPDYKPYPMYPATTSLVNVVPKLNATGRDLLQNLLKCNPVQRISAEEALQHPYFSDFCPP
# T1 sequence (Q15078 99-307 partner limits assumed): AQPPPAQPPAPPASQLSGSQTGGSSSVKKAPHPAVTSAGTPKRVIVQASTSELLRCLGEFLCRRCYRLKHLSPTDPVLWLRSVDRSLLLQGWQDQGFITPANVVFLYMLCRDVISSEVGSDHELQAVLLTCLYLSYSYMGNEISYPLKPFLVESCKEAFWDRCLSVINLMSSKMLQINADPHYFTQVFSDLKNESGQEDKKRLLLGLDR
row,IC50 [nM],SMILES
1,> 1000,CC(C)c1cnn2c(NCc3ccccc3-c3ccc4ccccc4n3)nc(O[C@H]3CC[C@@H](O)CC3)nc12 [Compound 272]

# Same assay, conditions: read-out: CDK5 enzymatic activity (IC50 range)
row,IC50 [nM],SMILES
1,< 100,CC(=O)Nc1ccc2[nH]c(-c3ccccc3CNc3nc(N4CCC(N)CC4)nc4c(C(C)C)cnn34)cc2c1 [Compound 116]
2,100 to 1000,CC(C)c1cnn2c(NCc3ccccc3-n3ccc(-c4ccccc4)n3)nc(N3CCC(N)CC3)nc12 [Compound 99]

# Biological target: T2, CDK7/Cyclin H/MNAT1 (Homo sapiens, UniProt P50613)
# T2 construct: purchased Invitrogen PR6749B
# Assay: Enzymatic assay for CDK7 (FRET based LANCE Ultra kinase assay)
# Type: biochemical
# Conditions: not given
# Method in brief: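 Inhibition was measured at Km ATP by time-resolved FRET between a Eu anti-phospho antibody and a phosphorylated ULight peptide. The enzyme was the purified CDK7/cyclin complex, and data were curve-fitted.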
# T2 sequence (P50613 whole entry): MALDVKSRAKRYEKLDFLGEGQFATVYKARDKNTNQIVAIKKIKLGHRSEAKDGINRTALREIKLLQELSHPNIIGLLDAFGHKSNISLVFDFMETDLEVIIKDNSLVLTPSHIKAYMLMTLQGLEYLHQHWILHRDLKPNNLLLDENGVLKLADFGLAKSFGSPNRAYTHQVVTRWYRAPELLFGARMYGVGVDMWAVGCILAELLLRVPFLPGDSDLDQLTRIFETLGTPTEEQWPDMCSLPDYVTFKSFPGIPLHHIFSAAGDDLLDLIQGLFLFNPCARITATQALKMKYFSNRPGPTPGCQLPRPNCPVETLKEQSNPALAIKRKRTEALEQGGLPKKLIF
# T2 sequence (P51946 whole entry partner): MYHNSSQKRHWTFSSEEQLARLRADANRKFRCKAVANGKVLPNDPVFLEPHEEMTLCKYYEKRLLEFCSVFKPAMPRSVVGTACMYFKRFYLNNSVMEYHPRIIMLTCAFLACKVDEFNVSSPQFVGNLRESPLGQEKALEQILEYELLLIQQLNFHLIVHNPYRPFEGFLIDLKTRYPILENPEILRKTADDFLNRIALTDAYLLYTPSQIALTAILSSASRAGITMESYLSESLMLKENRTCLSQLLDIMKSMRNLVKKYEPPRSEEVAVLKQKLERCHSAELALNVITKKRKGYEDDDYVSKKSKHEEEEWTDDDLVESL
# T2 sequence (P51948 whole entry partner): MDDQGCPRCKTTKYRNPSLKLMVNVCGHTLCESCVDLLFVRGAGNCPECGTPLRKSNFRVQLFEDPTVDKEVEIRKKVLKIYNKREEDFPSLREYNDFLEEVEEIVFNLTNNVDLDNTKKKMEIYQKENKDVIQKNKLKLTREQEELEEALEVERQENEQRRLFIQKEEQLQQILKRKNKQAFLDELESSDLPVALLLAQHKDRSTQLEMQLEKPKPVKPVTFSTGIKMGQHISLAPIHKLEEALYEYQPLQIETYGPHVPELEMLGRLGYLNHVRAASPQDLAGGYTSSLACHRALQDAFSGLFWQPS
row,IC50 [nM],SMILES
1,< 100,CC(C)c1cnn2c(NCc3ccccc3-n3ccc(-c4ccccc4)n3)nc(N3CCC(N)CC3)nc12 [Compound 99]

# Same assay, conditions: CDK1/CDK7
row,CDK1/CDK7: Selectivity of CDK7 inhibition over CDK1 inhibition,SMILES
1,A (A=greater than 200 fold),CC(C)c1cnn2c(NCc3ccccc3-c3ccc4ccccc4n3)nc(O[C@H]3CC[C@@H](O)CC3)nc12 [Compound 272]

# Same assay, conditions: CDK2/CDK7
row,CDK2/CDK7: Selectivity of CDK7 inhibition over CDK2 inhibition,SMILES
1,A (A=greater than 200 fold),CC(C)c1cnn2c(NCc3ccccc3-c3ccc4ccccc4n3)nc(O[C@H]3CC[C@@H](O)CC3)nc12 [Compound 272]

# Same assay, conditions: CDK5/CDK7
row,CDK5/CDK7: Selectivity of CDK7 inhibition over CDK5 inhibition,SMILES
1,A (A=greater than 200 fold),CC(C)c1cnn2c(NCc3ccccc3-c3ccc4ccccc4n3)nc(O[C@H]3CC[C@@H](O)CC3)nc12 [Compound 272]

# Same assay, conditions: CDK7 over CDK1
row,SMILES,CDK1/CDK7: Selectivity of CDK7 inhibition over CDK1 inhibition
1,CC(=O)Nc1ccc2[nH]c(-c3ccccc3CNc3nc(N4CCC(N)CC4)nc4c(C(C)C)cnn34)cc2c1 [Compound 116],"B (B=less than 200 fold, but greater than 20 fold)"
2,CC(C)c1cnn2c(NCc3ccccc3-n3ccc(-c4ccccc4)n3)nc(N3CCC(N)CC3)nc12 [Compound 99],A (A=greater than 200 fold)

# Same assay, conditions: CDK7 over CDK2
row,SMILES,CDK2/CDK7: Selectivity of CDK7 inhibition over CDK2 inhibition
1,CC(=O)Nc1ccc2[nH]c(-c3ccccc3CNc3nc(N4CCC(N)CC4)nc4c(C(C)C)cnn34)cc2c1 [Compound 116],"B (B=less than 200 fold, but greater than 20 fold)"
2,CC(C)c1cnn2c(NCc3ccccc3-n3ccc(-c4ccccc4)n3)nc(N3CCC(N)CC3)nc12 [Compound 99],A (A=greater than 200 fold)

# Same assay, conditions: CDK7 over CDK5
row,SMILES,CDK5/CDK7: Selectivity of CDK7 inhibition over CDK5 inhibition
1,CC(=O)Nc1ccc2[nH]c(-c3ccccc3CNc3nc(N4CCC(N)CC4)nc4c(C(C)C)cnn34)cc2c1 [Compound 116],C (C=less than 20 fold)
2,CC(C)c1cnn2c(NCc3ccccc3-n3ccc(-c4ccccc4)n3)nc(N3CCC(N)CC3)nc12 [Compound 99],"B (B=less than 200 fold, but greater than 20 fold)"

# Same assay, conditions: read-out: CDK7 enzymatic activity (IC50 activity range)
row,IC50 [nM],SMILES
1,< 100,CC(C)c1cnn2c(NCc3ccccc3-c3ccc4ccccc4n3)nc(O[C@H]3CC[C@@H](O)CC3)nc12 [Compound 272]

# Same assay, conditions: read-out: CDK7 enzymatic activity (IC50 range)
row,IC50 [nM],SMILES
1,< 100,CC(=O)Nc1ccc2[nH]c(-c3ccccc3CNc3nc(N4CCC(N)CC4)nc4c(C(C)C)cnn34)cc2c1 [Compound 116]

# System: MV4-11
# Assay: Cellular MV4-11 viability assay (CellTiter-Glo, 72 hours)
# Type: cell-based
# Conditions: Homo sapiens
# Method in brief: as §1
row,IC50 [nM],SMILES
1,1000 to 10000,CC(C)c1cnn2c(NCc3ccccc3-c3ccc4ccccc4n3)nc(O[C@H]3CC[C@@H](O)CC3)nc12 [Compound 272]
2,< 1000,CC(=O)Nc1ccc2[nH]c(-c3ccccc3CNc3nc(N4CCC(N)CC4)nc4c(C(C)C)cnn34)cc2c1 [Compound 116]
3,< 1000,CC(C)c1cnn2c(NCc3ccccc3-n3ccc(-c4ccccc4)n3)nc(N3CCC(N)CC3)nc12 [Compound 99]

# System: MOLT-4
# Assay: Cellular MOLT-4 viability assay (CellTiter-Glo, 72 hours)
# Type: cell-based
# Conditions: Homo sapiens, MOLT4 viability assay
# Method in brief: as §1
row,IC50 [nM],SMILES
1,< 1000,CC(=O)Nc1ccc2[nH]c(-c3ccccc3CNc3nc(N4CCC(N)CC4)nc4c(C(C)C)cnn34)cc2c1 [Compound 116]
2,1000 to 10000,CC(C)c1cnn2c(NCc3ccccc3-n3ccc(-c4ccccc4)n3)nc(N3CCC(N)CC3)nc12 [Compound 99]

# System: A2780
# Assay: Cellular A2780 viability assay (CellTiter-Glo, 72 hours)
# Type: cell-based
# Conditions: Homo sapiens
# From the text: Human T-cell acute lymphoblastic leukemia cell line, MOLT-4 (ATCC, Cat #CRL-1582), Human multiple myeloma cell line, RPMI-8226 (Invitrogen, Cat #22400-089) and MM.1S (ATCC, Cat #CRL-2974), NSCLC (Non-small cell lung cancer) cell line H460 (ATCC, Cat #HTB-177), Human colon colorectal carcinoma cell line HCT116 (ATCC, Cat #CCL-247), Human acute monocytic leukemia cell line MV4-11 (ATCC, Cat #CRL-9591), OVCAR-3 (ATCC, Cat #HTB-161) and A2780 (ECACC, Cat #93112519) were obtained from ATCC. Cells were grown in RPMI-1640 media (Invitrogen, Cat #22400-089) supplemented with 10% FBS (Invitrogen, Cat #10099141) and 1% penicillin/streptomycin (Invitrogen, Cat #15070063) and cultured at 37° C., 5% CO2 in a humidified chamber. All cell lines were routinely tested for mycoplasma.
# The effect of the CDK7 inhibitor to inhibit the growth of target cancer cells was evaluated through the 72 hours time period of viability assay. Briefly, the candidate cell line ware plated in 96 well plate at the following density of cells respectively. 1×10^4 cells/well for MOLT-4, RPMI-8226, MV4-11 and MM.1S, 5×10^3 for H460, HCT116 and OVCAR-3 and IX 10^3 for A2780. After 24 hours, the cells were treated with various concentrations of the compound (ranging from 0.0015 uM to 10 uM). DMSO solvent without compound served as a control and final DMSO concentration less than 0.1%. After 72 hours of incubation at 37° C., 5% CO2 incubator, cells were analyzed for the viability using the CellTiter-Glo Luminescent Cell Viability Assay (Promega, Cat #G7570). All viability assays were performed in duplicate and Luminescence was read using an Envision (Perkin Elmer, USA). Data was analyzed using XLfit software.
row,IC50 [µM],SMILES
1,1 to 10,CC(C)c1cnn2c(NCc3ccccc3-c3ccc4ccccc4n3)nc(O[C@H]3CC[C@@H](O)CC3)nc12 [Compound 272]

# Biological target: T3, CDK1/Cyclin B (Homo sapiens, UniProt P06493)
# T3 construct: purchased Invitrogen PR4768C
# Assay: Enzymatic assay for CDK1 (FRET based LANCE Ultra kinase assay)
# Type: biochemical
# Conditions: read-out: CDK1 enzymatic activity (IC50 activity range)
# Method in brief: as §2
# T3 sequence (P06493 whole entry): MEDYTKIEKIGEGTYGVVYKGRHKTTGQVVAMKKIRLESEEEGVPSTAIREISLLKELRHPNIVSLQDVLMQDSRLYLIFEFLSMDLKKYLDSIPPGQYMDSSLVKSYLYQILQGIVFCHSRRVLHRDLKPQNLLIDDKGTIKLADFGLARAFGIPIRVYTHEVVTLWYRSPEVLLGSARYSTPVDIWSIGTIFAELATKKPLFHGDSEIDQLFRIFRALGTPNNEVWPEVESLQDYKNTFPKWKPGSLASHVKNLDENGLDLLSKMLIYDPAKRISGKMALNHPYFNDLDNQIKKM
# T3 sequence (P14635 whole entry partner): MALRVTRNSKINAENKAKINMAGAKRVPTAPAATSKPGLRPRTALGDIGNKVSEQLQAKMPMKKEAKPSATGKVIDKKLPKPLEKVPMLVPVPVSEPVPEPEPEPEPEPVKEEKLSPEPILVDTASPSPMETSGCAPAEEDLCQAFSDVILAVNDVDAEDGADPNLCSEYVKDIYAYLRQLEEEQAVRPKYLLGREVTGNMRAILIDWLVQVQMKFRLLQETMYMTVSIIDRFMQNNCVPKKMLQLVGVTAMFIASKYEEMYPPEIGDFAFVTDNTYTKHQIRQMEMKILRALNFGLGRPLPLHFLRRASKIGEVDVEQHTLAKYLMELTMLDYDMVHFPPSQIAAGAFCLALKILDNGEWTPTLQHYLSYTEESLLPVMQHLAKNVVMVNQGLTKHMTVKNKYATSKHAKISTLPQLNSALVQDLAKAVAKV
row,IC50 [nM],SMILES
1,> 1000,CC(C)c1cnn2c(NCc3ccccc3-c3ccc4ccccc4n3)nc(O[C@H]3CC[C@@H](O)CC3)nc12 [Compound 272]

# Same assay, conditions: read-out: CDK1 enzymatic activity (IC50 range)
row,IC50 [nM],SMILES
1,100 to 1000,CC(=O)Nc1ccc2[nH]c(-c3ccccc3CNc3nc(N4CCC(N)CC4)nc4c(C(C)C)cnn34)cc2c1 [Compound 116]
2,> 1000,CC(C)c1cnn2c(NCc3ccccc3-n3ccc(-c4ccccc4)n3)nc(N3CCC(N)CC3)nc12 [Compound 99]

# System: HCT116
# Assay: Cellular HCT116 viability assay (CellTiter-Glo, 72 hours)
# Type: cell-based
# Conditions: Homo sapiens, HCT-116
# Method in brief: as §1
row,IC50 [nM],SMILES
1,< 1000,CC(=O)Nc1ccc2[nH]c(-c3ccccc3CNc3nc(N4CCC(N)CC4)nc4c(C(C)C)cnn34)cc2c1 [Compound 116]
2,< 1000,CC(C)c1cnn2c(NCc3ccccc3-n3ccc(-c4ccccc4)n3)nc(N3CCC(N)CC3)nc12 [Compound 99]

# Biological target: T4, CDK2/Cyclin A (Homo sapiens, UniProt P24941)
# T4 construct: purchased Invitrogen PV6290
# Assay: Enzymatic assay for CDK2 (FRET based LANCE Ultra kinase assay)
# Type: biochemical
# Conditions: read-out: CDK2 enzymatic activity (IC50 activity range)
# Method in brief: as §2
row,IC50 [nM],SMILES
1,> 1000,CC(C)c1cnn2c(NCc3ccccc3-c3ccc4ccccc4n3)nc(O[C@H]3CC[C@@H](O)CC3)nc12 [Compound 272]

# Same assay, conditions: read-out: CDK2 enzymatic activity (IC50 range)
row,IC50 [nM],SMILES
1,< 100,CC(=O)Nc1ccc2[nH]c(-c3ccccc3CNc3nc(N4CCC(N)CC4)nc4c(C(C)C)cnn34)cc2c1 [Compound 116]
2,> 1000,CC(C)c1cnn2c(NCc3ccccc3-n3ccc(-c4ccccc4)n3)nc(N3CCC(N)CC3)nc12 [Compound 99]
